Assay results as given in PMC11539244, “Relative inhibitory activities of newly developed diazabicyclooctanes, boronic acid derivatives, and penicillin-based sulfone β-lactamase inhibitors against broad-spectrum AmpC β-lactamases” (Antimicrobial Agents and Chemotherapy, 2024).
Like-named read-outs stand apart in the source and are kept apart here.

Assays:
E. coli ATCC 25922 = experiment: MIC by broth microdilution, E. coli ATCC 25922; assay type: cell-based; conditions: Escherichia coli, ATCC25922, E. coli ATCC 25922, β-lactam alone or with inhibitor at fixed conc.: CLA 2 µg/mL, TZB, AVI, REL, NAC, ZID, DUR, TAN 4 µg/mL, VAB, XER, EMT 8 µg/mL, read-out: MICs
Protocol: (§1) MICs were determined in triplicate by broth microdilution (BMD) for CAZ and AMX, as well as their combinations with each β-lactamase inhibitor. CAZ, AMX, and CLA were purchased from Sigma-Aldrich (St. Louis, MO, USA). All others inhibitors (TAZ HY-W009168, AVI HY-14879, REL HY-16752, VAB HY-19930, NAC HY-109008, ZID HY-120859, TAN HY-109124, XER HY-136072, DUR HY-117974, EMT HY-103095) were purchased from MedChem Express (Luzern, Switzerland). The concentration of each β-lactamase inhibitor was chosen as the concentration used in the respective BL/BLI combination under development or commercially available, according to EUCAST or CLSI ([18], [19]). […] BMD assays were performed in cation-adjusted Mueller-Hinton (MH) broth (Bio-Rad, Marnes-la-Coquette, France) for all antibiotics or antibiotic combinations listed above, according to the EUCAST guidelines ([20]).

[1] = tested on: E. coli ACC-1 (E. coli TOP10 recombinant strain); experiment: microbe, parasite or virus in culture; assay type: cell-based; conditions: Escherichia coli, read-out: MICs
Protocol: (§2) In order to assess the relative inhibitory activities of those BLI against AmpC β-lactamases, the corresponding blaampC genes without the original promoter sequences were amplified by PCR with specific primers, and corresponding amplicons were cloned into plasmid pUCp24, as described previously ([12], [13]). […] Cultures of E. coli TOP10 harboring recombinant plasmids and therefore producing the different AmpC tested were grown overnight at 37°C in Luria-Bertani agar medium containing amoxicillin (AMX) (50 µg/mL). The activity of the following acquired class C β-lactamases could therefore be evaluated, namely, ACC-1 (originally from Hafnia spp.), FOX-5 (from Aeromonas allosaccharophila), CMY-2 and CMY-42 (from Citrobacter spp.), DHA-1 (from Morganella morganii), ACT-7 and ACT-17 (from Enterobacter asburiae), MIR-17 (from Enterobacter roggenkampii), MOX-2 (from Aeromonas caviae), and LAT-1 (from Citrobacter portucalensis) ([5]). […] Altogether, these enzymes were chosen as representatives of clinically relevant class C β-lactamases being sources of intrinsic or acquired resistance to broad-spectrum β-lactams among most of the commonly identified Gram-negative bacteria in clinical practice.
as §1

[2] = tested on: E. coli ACT-17 (E. coli TOP10 recombinant strain); experiment: microbe, parasite or virus in culture; assay type: cell-based; conditions: Escherichia coli, read-out: MICs
Protocol: as §2, §1

[3] = tested on: E. coli ACT-7 (E. coli TOP10 recombinant strain); experiment: microbe, parasite or virus in culture; assay type: cell-based; conditions: Escherichia coli, read-out: MICs
Protocol: as §2, §1

[4] = tested on: E. coli CMY-2 (E. coli TOP10 recombinant strain); experiment: microbe, parasite or virus in culture; assay type: cell-based; conditions: Escherichia coli, read-out: MICs
Protocol: as §2, §1

[5] = tested on: E. coli CMY-42 (E. coli TOP10 recombinant strain); experiment: microbe, parasite or virus in culture; assay type: cell-based; conditions: Escherichia coli, read-out: MICs
Protocol: as §2, §1

[6] = tested on: E. coli DHA-1 (E. coli TOP10 recombinant strain); experiment: microbe, parasite or virus in culture; assay type: cell-based; conditions: Escherichia coli, read-out: MICs
Protocol: as §2, §1

[7] = tested on: E. coli Ear-1 (E. coli TOP10 recombinant strain); experiment: microbe, parasite or virus in culture; assay type: cell-based; conditions: Escherichia coli, read-out: MICs
Protocol: as §2, §1

[8] = tested on: E. coli FOX-5 (E. coli TOP10 recombinant strain); experiment: microbe, parasite or virus in culture; assay type: cell-based; conditions: Escherichia coli, read-out: MICs
Protocol: as §2, §1

[9] = tested on: E. coli LAT-1 (E. coli TOP10 recombinant strain); experiment: microbe, parasite or virus in culture; assay type: cell-based; conditions: Escherichia coli, read-out: MICs
Protocol: as §2, §1

[10] = tested on: E. coli MIR-17 (E. coli TOP10 recombinant strain); experiment: microbe, parasite or virus in culture; assay type: cell-based; conditions: Escherichia coli, read-out: MICs
Protocol: as §2, §1

[11] = tested on: E. coli MOX-2 (E. coli TOP10 recombinant strain); experiment: microbe, parasite or virus in culture; assay type: cell-based; conditions: Escherichia coli, read-out: MICs
Protocol: as §2, §1

[12] = tested on: E. coli PDC-1 (E. coli TOP10 recombinant strain); experiment: microbe, parasite or virus in culture; assay type: cell-based; conditions: Escherichia coli, read-out: MICs
Protocol: as §2, §1

[13] = tested on: E. coli PDC-382 (E. coli TOP10 recombinant strain); experiment: microbe, parasite or virus in culture; assay type: cell-based; conditions: Escherichia coli, read-out: MICs
Protocol: as §2, §1

[14] = tested on: E. coli PDC-5 (E. coli TOP10 recombinant strain); experiment: microbe, parasite or virus in culture; assay type: cell-based; conditions: Escherichia coli, read-out: MICs
Protocol: as §2, §1

[15] = tested on: E. coli SRT-2 (E. coli TOP10 recombinant strain); experiment: microbe, parasite or virus in culture; assay type: cell-based; conditions: Escherichia coli, read-out: MICs
Protocol: as §2, §1

E. coli TOP10 = experiment: microbe, parasite or virus in culture; assay type: cell-based; conditions: Escherichia coli
Protocol: as §2, §1

[16] = tested on: E. coli YRC-1 (E. coli TOP10 recombinant strain); experiment: microbe, parasite or virus in culture; assay type: cell-based; conditions: Escherichia coli, read-out: MICs
Protocol: as §2, §1

[17] = tested on: E. coli ADC-50 (E. coli TOP10 recombinant strain); experiment: microbe, parasite or virus in culture; assay type: cell-based, Escherichia coli
Protocol: as §2, §1

ACC-1 = ACC-1 (Hafnia alvei, UniProt Q9XB24); experiment: IC50 of β-lactamase inhibitors, crude extract, ACC-1; assay type: biochemical
Chain of ACC-1 (Q9XB24 entry or part of it): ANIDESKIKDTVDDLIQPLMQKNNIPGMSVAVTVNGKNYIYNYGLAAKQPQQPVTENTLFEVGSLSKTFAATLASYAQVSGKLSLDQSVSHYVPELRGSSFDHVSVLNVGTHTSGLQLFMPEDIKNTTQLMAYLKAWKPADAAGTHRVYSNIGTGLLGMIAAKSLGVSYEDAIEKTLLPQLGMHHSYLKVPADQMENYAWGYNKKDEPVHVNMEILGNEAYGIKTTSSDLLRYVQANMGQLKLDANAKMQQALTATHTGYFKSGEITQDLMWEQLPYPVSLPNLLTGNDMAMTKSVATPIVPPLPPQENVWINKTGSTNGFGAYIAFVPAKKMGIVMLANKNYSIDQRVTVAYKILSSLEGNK

FOX-5 = FOX-5 (Aeromonas allosaccharophila, UniProt Q9F4K3); experiment: IC50 of β-lactamase inhibitors, crude extract, FOX-5; assay type: biochemical
Chain of FOX-5 (Q9F4K3 entry or part of it): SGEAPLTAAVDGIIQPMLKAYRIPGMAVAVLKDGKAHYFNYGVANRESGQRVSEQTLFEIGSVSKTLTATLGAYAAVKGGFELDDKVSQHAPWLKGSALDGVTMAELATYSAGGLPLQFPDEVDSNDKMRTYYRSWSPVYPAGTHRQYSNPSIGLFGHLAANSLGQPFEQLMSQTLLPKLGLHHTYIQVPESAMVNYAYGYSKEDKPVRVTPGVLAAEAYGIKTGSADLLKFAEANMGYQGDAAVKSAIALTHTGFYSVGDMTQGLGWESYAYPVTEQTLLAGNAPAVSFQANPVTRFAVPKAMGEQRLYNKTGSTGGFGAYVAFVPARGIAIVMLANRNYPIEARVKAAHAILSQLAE

ACT-7 = ACT-7 (Enterobacter asburiae, UniProt B6V6L3); experiment: biochemical
Chain of ACT-7 (B6V6L3 entry or part of it): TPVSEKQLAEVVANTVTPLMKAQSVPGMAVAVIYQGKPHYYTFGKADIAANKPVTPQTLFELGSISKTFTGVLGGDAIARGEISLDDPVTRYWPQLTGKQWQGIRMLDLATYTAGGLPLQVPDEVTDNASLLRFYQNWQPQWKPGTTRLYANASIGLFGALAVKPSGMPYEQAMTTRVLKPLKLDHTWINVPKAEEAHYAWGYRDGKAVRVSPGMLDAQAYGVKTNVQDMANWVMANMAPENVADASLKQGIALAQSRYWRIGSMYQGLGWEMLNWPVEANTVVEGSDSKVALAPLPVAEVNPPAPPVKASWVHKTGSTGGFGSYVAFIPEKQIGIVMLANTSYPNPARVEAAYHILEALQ

ACT-17 = ACT-17 (Enterobacter asburiae, UniProt P05364); assay type: biochemical; conditions: crude extract of E. coli TOP10 recombinant strain, mean of triplicate
Chain of ACT-17 (P05364 21-381): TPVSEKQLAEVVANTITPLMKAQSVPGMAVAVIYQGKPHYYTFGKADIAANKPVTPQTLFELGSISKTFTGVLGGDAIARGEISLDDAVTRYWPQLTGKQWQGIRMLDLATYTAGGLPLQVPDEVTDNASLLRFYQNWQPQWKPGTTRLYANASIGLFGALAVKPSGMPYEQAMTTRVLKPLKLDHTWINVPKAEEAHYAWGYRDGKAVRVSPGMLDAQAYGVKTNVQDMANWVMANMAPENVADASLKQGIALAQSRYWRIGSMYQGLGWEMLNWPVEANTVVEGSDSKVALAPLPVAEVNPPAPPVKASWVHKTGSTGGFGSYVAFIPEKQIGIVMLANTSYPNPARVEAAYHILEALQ

CMY-2 = molecular target: T1, CMY-2 (Klebsiella pneumoniae, UniProt Q48434); experiment: biochemical; design: species or system Citrobacter spp.
T1 construct: made in house; host or cells: E. coli TOP10, plasmid pUCp24

CMY-42 = molecular target: T2, CMY-42 (Klebsiella pneumoniae, UniProt Q48434, V231S); experiment: biochemical; design: species or system Citrobacter spp.
T2 construct: made in house; host or cells: E. coli TOP10, plasmid pUCp24
T2 sequence (Q48434 21-381 V231S): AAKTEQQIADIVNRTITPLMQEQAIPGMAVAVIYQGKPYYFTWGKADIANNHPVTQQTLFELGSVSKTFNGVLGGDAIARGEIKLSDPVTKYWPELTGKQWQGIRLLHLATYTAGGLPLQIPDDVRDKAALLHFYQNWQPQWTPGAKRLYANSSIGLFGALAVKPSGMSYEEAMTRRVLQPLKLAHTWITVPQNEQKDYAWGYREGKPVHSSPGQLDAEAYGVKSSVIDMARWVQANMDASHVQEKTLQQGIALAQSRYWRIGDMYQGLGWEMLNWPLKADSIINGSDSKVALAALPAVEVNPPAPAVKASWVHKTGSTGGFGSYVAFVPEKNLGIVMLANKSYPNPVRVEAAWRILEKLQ

DHA-1 = DHA-1 (Morganella morganii, UniProt P94958); experiment: IC50 of β-lactamase inhibitors, crude extract, DHA-1; assay type: biochemical
LAT-1 = LAT-1 (Citrobacter portucalensis, UniProt Q48443); experiment: biochemical
Chain of LAT-1 (Q48443 entry or part of it): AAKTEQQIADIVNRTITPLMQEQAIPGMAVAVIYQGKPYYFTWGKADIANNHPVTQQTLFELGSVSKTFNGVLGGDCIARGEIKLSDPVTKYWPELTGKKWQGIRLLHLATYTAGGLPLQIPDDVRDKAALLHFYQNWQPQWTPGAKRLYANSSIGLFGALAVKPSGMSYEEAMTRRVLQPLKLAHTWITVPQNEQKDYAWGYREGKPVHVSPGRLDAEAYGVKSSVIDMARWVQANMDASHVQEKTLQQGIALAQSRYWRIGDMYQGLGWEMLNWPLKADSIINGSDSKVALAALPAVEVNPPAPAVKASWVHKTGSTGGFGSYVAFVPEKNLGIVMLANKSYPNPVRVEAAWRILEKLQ

MOX-2 = MOX-2 (Aeromonas caviae, UniProt Q9L3G2); experiment: IC50 of β-lactamase inhibitors, crude extract, MOX-2; assay type: biochemical
Chain of MOX-2 (Q9L3G2 entry or part of it): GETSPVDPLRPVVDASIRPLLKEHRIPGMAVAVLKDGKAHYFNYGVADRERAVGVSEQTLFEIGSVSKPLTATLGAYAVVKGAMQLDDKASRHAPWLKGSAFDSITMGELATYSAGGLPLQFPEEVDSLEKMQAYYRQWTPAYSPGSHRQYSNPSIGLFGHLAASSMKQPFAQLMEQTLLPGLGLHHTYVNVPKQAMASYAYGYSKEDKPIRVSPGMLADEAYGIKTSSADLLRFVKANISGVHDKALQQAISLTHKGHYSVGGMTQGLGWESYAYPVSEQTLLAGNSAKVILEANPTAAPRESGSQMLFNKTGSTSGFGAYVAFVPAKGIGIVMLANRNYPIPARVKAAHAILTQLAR

MIR-17 = experiment: IC50 of β-lactamase inhibitors, crude extract, MIR-17; assay type: biochemical, Enterobacter roggenkampii; conditions: crude extract of E. coli TOP10 recombinant strain, mean of triplicate
Ear-1 = Ear-1 (Klebsiella aerogenes, UniProt A0A0H3FRQ3); experiment: IC50 of β-lactamase inhibitors, crude extract, Ear-1; assay type: biochemical
Chain of Ear-1 (A0A0H3FRQ3 entry or part of it): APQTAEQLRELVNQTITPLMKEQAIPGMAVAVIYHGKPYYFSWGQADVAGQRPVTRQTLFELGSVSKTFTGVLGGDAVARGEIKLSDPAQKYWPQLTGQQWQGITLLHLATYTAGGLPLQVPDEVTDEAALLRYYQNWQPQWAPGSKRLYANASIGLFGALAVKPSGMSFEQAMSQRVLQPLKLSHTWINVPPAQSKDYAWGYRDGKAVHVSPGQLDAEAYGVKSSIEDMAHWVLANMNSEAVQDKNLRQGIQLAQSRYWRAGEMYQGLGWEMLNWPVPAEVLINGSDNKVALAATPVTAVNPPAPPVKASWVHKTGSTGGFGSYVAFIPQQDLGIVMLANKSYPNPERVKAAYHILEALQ

SRT-1 = SRT-1 (Serratia marcescens, UniProt P18539); experiment: IC50 of β-lactamase inhibitors, crude extract, SRT-1; assay type: biochemical; conditions: crude extract of E. coli TOP10 recombinant strain, mean of triplicate
Chain of SRT-1 (P18539 22-376): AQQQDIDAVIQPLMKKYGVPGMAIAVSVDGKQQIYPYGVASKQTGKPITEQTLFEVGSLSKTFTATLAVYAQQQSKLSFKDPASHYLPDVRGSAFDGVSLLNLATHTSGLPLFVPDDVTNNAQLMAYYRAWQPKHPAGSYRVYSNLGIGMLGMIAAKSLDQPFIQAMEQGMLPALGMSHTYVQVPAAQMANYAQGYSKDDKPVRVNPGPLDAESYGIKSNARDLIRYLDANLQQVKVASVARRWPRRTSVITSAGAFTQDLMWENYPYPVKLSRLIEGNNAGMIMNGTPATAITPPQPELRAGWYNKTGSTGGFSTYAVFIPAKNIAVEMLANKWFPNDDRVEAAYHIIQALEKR

PDC-1 = molecular target: T3, PDC-1 (Pseudomonas aeruginosa, UniProt P24735); experiment: biochemical; design: species or system P. aeruginosa
T3 construct: made in house; host or cells: E. coli TOP10, plasmid pUCp24
T3 sequence (P24735 27-397): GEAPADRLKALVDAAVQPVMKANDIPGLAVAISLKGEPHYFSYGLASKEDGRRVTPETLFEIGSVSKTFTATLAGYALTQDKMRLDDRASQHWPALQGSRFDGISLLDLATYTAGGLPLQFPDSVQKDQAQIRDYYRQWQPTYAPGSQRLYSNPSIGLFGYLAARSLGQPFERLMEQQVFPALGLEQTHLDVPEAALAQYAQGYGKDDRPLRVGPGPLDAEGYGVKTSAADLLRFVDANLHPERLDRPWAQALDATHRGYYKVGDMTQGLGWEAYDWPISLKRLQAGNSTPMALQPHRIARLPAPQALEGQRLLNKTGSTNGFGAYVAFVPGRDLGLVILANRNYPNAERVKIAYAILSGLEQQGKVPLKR

PDC-5 = molecular target: T4, PDC-5 (Pseudomonas aeruginosa, UniProt P24735, R79Q/T105A); experiment: biochemical; design: species or system P. aeruginosa
T4 construct: made in house; host or cells: E. coli TOP10, plasmid pUCp24
T4 sequence (P24735 27-397 R79Q/T105A): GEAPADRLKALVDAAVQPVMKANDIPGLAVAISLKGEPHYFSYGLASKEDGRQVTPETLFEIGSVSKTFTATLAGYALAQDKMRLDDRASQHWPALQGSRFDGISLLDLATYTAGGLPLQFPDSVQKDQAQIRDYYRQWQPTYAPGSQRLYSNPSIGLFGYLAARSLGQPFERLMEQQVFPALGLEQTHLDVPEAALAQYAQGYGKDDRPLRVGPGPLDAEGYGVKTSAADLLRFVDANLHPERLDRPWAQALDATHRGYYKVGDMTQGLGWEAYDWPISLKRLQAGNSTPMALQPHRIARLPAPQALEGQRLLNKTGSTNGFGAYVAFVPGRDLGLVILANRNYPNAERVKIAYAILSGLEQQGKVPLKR

PDC-382 = PDC-382 (Pseudomonas aeruginosa, UniProt P24735, T96I); experiment: biochemical; design: species or system P. aeruginosa
Chain of PDC-382 (P24735 27-397 T96I): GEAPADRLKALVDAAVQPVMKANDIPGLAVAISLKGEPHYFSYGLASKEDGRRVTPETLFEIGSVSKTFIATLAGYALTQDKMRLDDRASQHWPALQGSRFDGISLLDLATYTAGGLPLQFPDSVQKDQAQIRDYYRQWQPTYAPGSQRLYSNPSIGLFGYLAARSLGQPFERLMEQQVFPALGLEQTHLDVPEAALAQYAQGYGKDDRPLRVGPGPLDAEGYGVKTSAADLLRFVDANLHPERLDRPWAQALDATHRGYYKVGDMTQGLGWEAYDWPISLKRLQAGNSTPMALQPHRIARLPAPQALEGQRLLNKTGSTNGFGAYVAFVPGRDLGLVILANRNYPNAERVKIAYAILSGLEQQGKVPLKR

ADC-50 = ADC-50 (Acinetobacter baumannii, UniProt Q6DRA1); experiment: IC50 of β-lactamase inhibitors, crude extract, ADC-50; assay type: biochemical, A. baumannii
YRC-1 = YRC-1 (Yersinia ruckeri, UniProt Q20I87); experiment: IC50 of β-lactamase inhibitors, crude extract, YRC-1; assay type: biochemical
Chain of YRC-1 (Q20I87 entry or part of it): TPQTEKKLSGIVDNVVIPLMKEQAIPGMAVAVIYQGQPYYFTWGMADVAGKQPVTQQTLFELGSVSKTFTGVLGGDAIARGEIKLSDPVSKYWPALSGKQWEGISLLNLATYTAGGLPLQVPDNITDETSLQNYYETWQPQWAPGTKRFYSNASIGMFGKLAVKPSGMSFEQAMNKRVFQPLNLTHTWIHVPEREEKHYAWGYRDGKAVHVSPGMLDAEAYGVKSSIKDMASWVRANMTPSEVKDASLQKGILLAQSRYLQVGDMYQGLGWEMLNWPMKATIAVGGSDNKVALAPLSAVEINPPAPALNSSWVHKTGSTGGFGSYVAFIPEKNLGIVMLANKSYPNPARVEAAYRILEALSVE

[18] = TOP10, E. coli TOP 10, β-lactamase inhibitor alone, read-out: MIC values of inhibitor alone
[19] = ADC-50, crude extract of E. coli TOP10 recombinant strain, mean of triplicate

Row | SMILES | MIC (E. coli TOP10; [18]) | IC50 (ACC-1) | IC50 (FOX-5) | IC50 (ACT-7) | IC50 (ACT-17) | IC50 (CMY-2) | IC50 (CMY-42) | IC50 (DHA-1) | IC50 (LAT-1) | IC50 (MOX-2) | IC50 (MIR-17) | IC50 (Ear-1) | IC50 (SRT-1) | IC50 (PDC-1) | IC50 (PDC-5) | IC50 (PDC-382) | IC50 (ADC-50; [19]) | IC50 (YRC-1) | inhibition of ADC-50 (in words) (ADC-50; ADC-50 of A. baumannii) | other results
1 | CC1(C)S[C@@H]2[C@H](NC(=O)[C@H](N)c3ccc(O)cc3)C(=O)N2[C@H]1C(=O)O [Amoxicillin, amoxicillin] |  |  |  |  |  |  |  |  |  |  |  |  |  |  |  |  |  |  |  | MIC (E. coli ATCC 25922): 4 µg/mL; MIC [1]: 32 µg/mL; MIC [2]: 512 µg/mL; MIC [3]: 1020 µg/mL; MIC [4]: > 1020 µg/mL; MIC [5]: 1020 µg/mL; MIC [6]: 1020 µg/mL; MIC [7]: > 1020 µg/mL; MIC [8]: 8 µg/mL; MIC [9]: 512 µg/mL; MIC [10]: 128 µg/mL; MIC [11]: 8 µg/mL; MIC [12]: 16 µg/mL; MIC [13]: 16 µg/mL; MIC [14]: 16 µg/mL; MIC [15]: 128 µg/mL; MIC (E. coli TOP10; TOP10, read-out: MICs): 1 µg/mL; MIC [16]: 512 µg/mL; MIC ([17]; Escherichia coli, read-out: MICs): 512 µg/mL
2 | CC1=C[C@@H]2CN(C(=O)N2OS(=O)(=O)O)[C@@H]1C(N)=O [Durlobactam, durlobactam] | 0.125 µg/mL | 5 nM | 22 nM | 4 nM | 3 nM | 4 nM | 11 nM | 4 nM | 5 nM | 55 nM | 5 nM | 6 nM | 22 nM | 9 nM | 13 nM | 100 nM | 170 nM | 5 nM |  | IC50 (ADC-50; read-out: IC50 value, ADC-50 of A. baumannii): 0.17 nM
3 | NCCONC(=O)[C@@H]1CC[C@@H]2CN1C(=O)N2OS(=O)(=O)O [Nacubactam, nacubactam] | 4 µg/mL | 450 nM | 5300 nM | 370 nM | 290 nM | 420 nM | 1700 nM | 500 nM | 290 nM | 4100 nM | 600 nM | 280 nM | 70000 nM | 5100 nM | 1200 nM | 34000 nM | > 100000 nM | 130 nM | not significantly inhibited | 
4 | NCCN[C@H]1CC[C@H](CC(=O)N[C@H]2Cc3cccc(C(=O)O)c3OB2O)CC1 [Taniborbactam, taniborbactam] |  |  |  |  |  |  |  |  |  |  | 30 nM |  |  |  |  |  |  |  | not significantly inhibited | sensitivity of ADC-50 β-lactamase to inhibitor (in words) ([17]; ADC-50 (cAmpC of A. baumannii), susceptibility testing of recombinant E. coli): resistant; IC50 (ACC-1; ACC-1, crude extract of E. coli TOP10 recombinant strain, mean of triplicate, read-out: IC50): 180 nM; IC50 (FOX-5; FOX-5, crude extract of E. coli TOP10 recombinant strain, mean of triplicate, read-out: IC50): 160 nM; IC50 (ACT-7; ACT-7, crude extract of E. coli TOP10 recombinant strain, mean of triplicate, read-out: IC50): 190 nM; IC50 (ACT-17; read-out: IC50): 210 nM; IC50 (CMY-42; CMY-42, crude extract of E. coli TOP10 recombinant strain, mean of triplicate, read-out: IC50): 680 nM; IC50 (DHA-1; DHA-1, crude extract of E. coli TOP10 recombinant strain, mean of triplicate, read-out: IC50): 120 nM; IC50 (LAT-1; LAT-1, crude extract of E. coli TOP10 recombinant strain, mean of triplicate, read-out: IC50): 230 nM; IC50 (MOX-2; MOX-2, crude extract of E. coli TOP10 recombinant strain, mean of triplicate, read-out: IC50): 320 nM; IC50 (Ear-1; Ear-1, crude extract of E. coli TOP10 recombinant strain, mean of triplicate, read-out: IC50): 110 nM; IC50 (SRT-1; read-out: IC50): 60 nM; IC50 (PDC-1; PDC-1, crude extract of E. coli TOP10 recombinant strain, mean of triplicate, read-out: IC50): 1100 nM; IC50 (PDC-5; PDC-5, crude extract of E. coli TOP10 recombinant strain, mean of triplicate, read-out: IC50): 510 nM; IC50 (PDC-382; PDC-382, crude extract of E. coli TOP10 recombinant strain, mean of triplicate, read-out: IC50): 5000 nM; IC50 (ADC-50; ADC-50, crude extract of E. coli TOP10 recombinant strain, mean of triplicate, read-out: IC50): 26000 nM; IC50 (YRC-1; YRC-1, crude extract of E. coli TOP10 recombinant strain, mean of triplicate, read-out: IC50): 100 nM
